Assay results taken from publication PMC11858513, “Antibiofilm Activities of Tritrpticin Analogs Against Pathogenic Pseudomonas aeruginosa PA01 Strains” (Molecules, 2025).
≈ marks a conversion by molar mass, not a printed value. Like-named read-outs stand apart in the source and are kept apart here. Non-standard residues stand in square brackets, D forms with d. Residues, ends and D or L forms follow the SMILES beside them. Dap = NC[C@H](N)C(=O)O

What was measured:
[1] = cited from earlier work
Excerpt: (§1) Overall, our work highlights the potential of […] analogs in comparison to related Trp-rich AMPs as potent antibiofilm peptides that can interfere in biofilms produced by P. aeruginosa and potentially other Gram-negative pathogenic bacteria. New antibiofilm agents are welcome for this organism, as P. aeruginosa is well-known to have numerous mechanisms to elude the action of antibiotics during biofilm formation. Various factors can influence the suitability of AMPs to act as bactericidal and antibiofilm peptides simultaneously (for a general discussion see, for example, [74]). One ...

[2] = tested on: P. aeruginosa PAO1; format: cell-based
Procedure, shortened: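 Peptides tested against P. aeruginosa PAO1 in 1× BM2 medium; planktonic growth read at 600 nm for MIC. Biofilm inhibition and eradication quantified by 0.1% crystal violet staining (15 min), ethanol release, absorbance at 595 nm, plus GFP-fluorescence and Calgary peg-device methods; triplicate means.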

[3] = tested on: P. aeruginosa PAO1; format: cell-based, Pseudomonas aeruginosa; conditions: absorbance 600 nm
Procedure, shortened: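 PAO1 tested with peptides in 1× BM2; planktonic growth read at 600 nm, biofilm quantified by 0.1% crystal violet staining (15 min), ethanol release and 595 nm reading, using a Calgary biofilm device. Values are means of three replicates with untreated-growth and medium-only controls.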

[4] = tested on: peripheral blood mononuclear cells (PBMCs); conditions: cited from earlier work
Excerpt: as §1

[5] = tested on: red blood cells; conditions: cited from earlier work
Excerpt: as §1

[6] = tested on: P. aeruginosa PAO1 GFP; test: MBIC, prevention of biofilm formation, GFP fluorescence method; format: cell-based, Pseudomonas aeruginosa
Procedure, shortened: (§2)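 GFP-expressing P. aeruginosa PAO1 exposed to peptides; planktonic MIC read by absorbance at 600 nm, while MBIC (prevention) and MBEC (eradication) used biofilm GFP fluorescence at 480/530 nm. Triplicate biological replicates averaged, with untreated growth and medium-only controls on each plate.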

[7] = tested on: P. aeruginosa PAO1 GFP; test: MBEC, biofilm eradication, GFP fluorescence method; format: cell-based, Pseudomonas aeruginosa
Procedure, shortened: as §2

[8] = tested on: P. aeruginosa PAO1 GFP; test: MIC against planktonic cells, absorbance at 600 nm; format: cell-based, Pseudomonas aeruginosa; conditions: absorbance 600 nm
Procedure, shortened: as §2

[9] = tested on: S. aureus GFP; test: MIC against planktonic cells, absorbance at 600 nm; format: cell-based, Staphylococcus aureus; conditions: Table 4; Sa GFP, 10% TSB and 0.1% glucose; absorbance 600 nm; mean of three biological replicates
Procedure, shortened: (§3)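 GFP-expressing S. aureus, triplicate biological replicates. MIC on planktonic cells by absorbance at 600 nm. MBIC and MBEC from biofilm GFP fluorescence (480/530 nm), with untreated growth and media-only controls.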

[10] = tested on: S. aureus GFP; test: MBIC, GFP fluorescence method; format: cell-based, Staphylococcus aureus; conditions: Table 4, Sa GFP, 10% TSB and 0.1% glucose, mean of three biological replicates
Procedure, shortened: as §3

[11] = tested on: S. aureus GFP; test: MBEC, GFP fluorescence method; format: cell-based, Staphylococcus aureus; conditions: Table 4, Sa GFP, 10% TSB and 0.1% glucose, mean of three biological replicates
Procedure, shortened: as §3

[12] = tested on: S. aureus GFP; format: cell-based, Staphylococcus aureus; conditions: Table 4; Sa GFP; lowest concentration of peptide with no bacterial growth seen on the spot agar plate
[13] = tested on: P. aeruginosa PAO1; format: cell-based, Pseudomonas aeruginosa; conditions: Table 5; PAO1, 1x BM2; biofilms on pegs, cells plated and counted; three biological replicates
Procedure, shortened: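 Biofilm eradication (MBEC) for peptides against P. aeruginosa PAO1 in 1× BM2 medium, from counts of biofilm cells; GFP-producing strain fluorescence, crystal violet staining and Calgary peg device also used. Three biological replicates, mean ± SD, with untreated growth and medium-only controls.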

[14] = Table 6, Tritrp-Lys derivatives, PAO1, BM2, 0.1% crystal violet 15 min, released with 95% ethanol, 595 nm, three replicates, unit not given
[15] = Table 6, Tritrp-Lys derivatives, PAO1, BM2, three replicates, unit not given
[16] = Table 3, Tritrp-Lys derivatives, BM2 medium, three replicates
[17] = Table 5, regular PAO1 (no GFP), 1x BM2, mean of three biological replicates
[18] = Table 2, BM2 medium, mean of three biological replicates

Compound: NCC(N)C(=O)O (stereo not drawn) [Dap, 2,3-diaminopropionic acid]
- sidechain pKa value [1]: 6.3

Compound: CC(C)C[C@H](NC(=O)[C@H](Cc1ccccc1)NC(=O)[C@@H]1CCCN1C(=O)[C@H](Cc1c[nH]c2ccccc12)NC(=O)[C@H](Cc1c[nH]c2ccccc12)NC(=O)[C@H](Cc1c[nH]c2ccccc12)NC(=O)[C@@H]1CCCN1C(=O)[C@H](Cc1ccccc1)NC(=O)[C@H](CN)NC(=O)[C@H](CN)NC(=O)[C@@H](N)C(C)C)C(=O)N[C@@H](CN)C(=O)N[C@@H](CN)C(N)=O [Tritrp-Dap] (H-V[Dap][Dap]FPWWWPFL[Dap][Dap]-NH2; N-terminus assumed)
- MBEC (CV at 595 nm) LD90 [2, 14]: 64
- MBIC (CV at 595 nm) LD90 [2, 14]: 16
- MIC at 600 nm LD50 [3, 15]: 8
- MIC at 600 nm LD90 [3, 15]: 16
- cytotoxicity activities against PBMCs [4]: no effect
- effect on RBCs [5]: no effect
- MBIC at 488 and 530 nm LD50 [6, 16]: 8 µmol/L
- MBIC at 488 and 530 nm LD90 [6, 16]: 16 µmol/L
- MBEC at 488 and 530 nm LD50 [7, 16]: 8 µmol/L
- MBEC at 488 and 530 nm LD90 [7, 16]: 64 µmol/L
- MIC at 600 nm LD50 [8, 16]: 8 µM (≈ 13 µg/mL)
- MIC at 600 nm LD90 [8, 16]: 8 µM (≈ 13 µg/mL)

Compound: CC(C)C[C@H](NC(=O)[C@H](Cc1ccccc1)NC(=O)[C@H](C)NC(=O)[C@H](Cc1c[nH]c2ccccc12)NC(=O)[C@H](Cc1c[nH]c2ccccc12)NC(=O)[C@H](Cc1c[nH]c2ccccc12)NC(=O)[C@@H]1CCCN1C(=O)[C@H](Cc1ccccc1)NC(=O)[C@H](CCCNC(=N)N)NC(=O)[C@H](CCCNC(=N)N)NC(=O)[C@@H](N)C(C)C)C(=O)N[C@@H](CCCNC(=N)N)C(=O)N[C@@H](CCCNC(=N)N)C(N)=O [Tritrp-P9A] (H-VRRFPWWWAFLRR-NH2)
- MIC at 600 nm LD50 [9]: 0.25 µM (≈ 0.469 µg/mL)
- MIC at 600 nm LD90 [9]: 1 µM (≈ 1.88 µg/mL)
- MBIC (CV at 595 nm) LD50 ([2]; PAO1): 1 µmol/L
- MBRC (CV at 595 nm) LD50 ([2]; PAO1): 16 µmol/L
- MBIC (CV at 595 nm) LD90 ([2]; Table 5, PAO1, 1x BM2, crystal violet at 595 nm, mean of three biological replicates): 2 µmol/L
- MBRC (CV at 595 nm) LD90 ([2]; Table 5, minimum biofilm reduction concentration, PAO1, 1x BM2, crystal violet at 595 nm, mean of three biological replicates): 32 µmol/L
- MBIC at 488 and 530 nm LD50 [10]: 0.25 µmol/L
- MBIC at 488 and 530 nm LD90 [10]: 2 µmol/L
- MIC at 600 nm LD50 [3, 17]: 2 µmol/L (≈ 3.75 µg/mL)
- MIC at 600 nm LD90 [3, 17]: 2 µmol/L (≈ 3.75 µg/mL)
- MBEC at 488 and 530 nm LD50 [11]: 0.5 µmol/L
- MBEC at 488 and 530 nm LD90 [11]: 2 µmol/L
- cytotoxicity activities against PBMCs [4]: quite strong
- hemolytic activity [5]: slightly more modest
- MBIC at 488 and 530 nm LD50 [6, 18]: 0.25 µmol/L
- MBIC at 488 and 530 nm LD90 [6, 18]: 2 µmol/L
- MBC Agar Plate [12]: 2 µM (≈ 3.75 µg/mL)
- MBEC at 488 and 530 nm LD50 [7, 18]: 4 µmol/L
- MBEC at 488 and 530 nm LD90 [7, 18]: 8 µmol/L
- MIC at 600 nm LD50 [8, 18]: 2 µM (≈ 3.75 µg/mL)
- MIC at 600 nm LD90 [8, 18]: 2 µM (≈ 3.75 µg/mL)
- MBEC from Calgary Biofilm Device (CBD) LD50 [13]: 8 µmol/L
- MBEC from Calgary Biofilm Device (CBD) LD90 [13]: 16 µmol/L
